Measured values taken from article PMC9256669, “Monomethyl auristatin antibody and peptide drug conjugates for trimodal cancer chemo-radio-immunotherapy” (Nature Communications, 2022).
Where “and” joins values, the source holds several entries; their conditions need not be identical. Identical values can stand only once. Like-named read-outs stand apart in the source and are kept apart here. Non-standard residues stand in square brackets, D forms with d. Residues, ends and D or L forms follow the SMILES beside them. *: point of attachment. Dolaproine = CO[C@@H]([C@@H]1CCCN1)[C@@H](C)C(=O)O; Dil = CC[C@H](C)[C@H](NC)[C@@H](CC(=O)O)OC; X1 = C[C@@H](N*)[C@@H](O)c1ccccc1; NMeV = CN[C@H](C(=O)O)C(C)C

Assays:
[1] = system: 4NQO-induced tongue tumors; settings: 10 nmoles ACPP-MMAE x 2 doses + whole tongue IR 5 Gy x 2 at week 20; tongues at week 22; vs untreated control
Experimental: 4-Nitroquinoline N-oxide (4NQO, Sigma Aldrich-N8141) was dissolved in propylene glycol as a stock solution (4 mg/ml) and further diluted in drinking water to a final concentration of 50 μg/ml. […] Since the entire tongue was exposed to 4NQO, the whole tongue was delineated and given 5 Gy × 2 using PXI SmART irradiator with 225 kVp X-ray tube. IR was delivered as 2 parallel opposed fields. All mice were given a full oral cavity examination biweekly, and any observed pathological changes were documented. On week 22, animals were euthanized, and tissues and oral pharynx were fixed in PAXgene tissue FIX (Qiagen) at room temperature for 12 h. Tissues were then transferred to 70% ethanol and paraffin embedded. Tongue sections were H&E stained and histopathologically assessed for the number and size of carcinoma lesions per tongue by a qualified Pathologist (A.A.M.) who was blinded manner to treatment of each slide.

[2] = system: MC38 tumors
Source text: (§1) LL/2 cells treated with dose range of MMAE overnight and then […] in drug free media for 7-10 days to allow for visualized colonies to form.
(§2) Statistical significances calculated using one-way ANOVA with Tukey’s multiple comparisons test. 0.9 b) Cell cycle analysis […]
(§3) of MMAE treated LL/2 cells, mean ± SD, n=2. […]
(§4) experiments. c) Clonogenic survival of LL/2 cells treated with MMAE and 2 Gy (SF2). Cell Days viability normalized to non-irradiated cells for each drug condition and plotted as mean fractional survival ± SEM, n=6. Statistical significances calculated using one-way ANOVA with Sidak’s multiple comparisons test. d) Tumor volumes (n=10) and mouse body weights (n=5) of mice from experiments in Fig. 3e. Tumor volumes plotted as mean volume of surviving mice ± SEM.
(§5) Mouse body weight were normalized to each mouse’s weight on day 0, i.e. tumor implantation.
(§6) Data plotted as mean fractional body weight ± SEM. e) Mouse body weights of mice (n=5) from experiments in Fig. 4h were normalized to each mouse’s weight on day of tumor implantation.
(§7) Data is plotted as individual normalized body weights. f) Mouse body weights of mice from experiments in Fig. 5e, f were normalized to each mouse’s weight on day of tumor implantation.
(§8) Source data are provided in Source Data file.

[3] = system: LL/2 tumors; settings: for Mouse survival, status: individual mice, status at the day, Figure 3e
Source text: as §1, §2, §3, §4, §5, §6, §7, §8

[4] = system: B16 tumors
Source text: as §1, §2, §3, §4, §5, §6, §7, §8

[5] = system: B16 cells; experiment: NanoString PanCancer IO 360 gene expression and gene set analysis of MMAE-treated cells; format: cell-based, murine
Experimental: RNA was isolated from cells or tumor tissues and comprehensive immune profiling was analyzed using the NanoString PanCancer IO 360 Panel and NanoString nCounter PanCancer Mouse Immune Profiling gene expression platforms. Gene set analysis with calculated global significance scores and directed significance scores were calculated for treated cells. The Advanced Analysis module of the nSolver software was used to analyze genes associated with listed immune cells in tumors and given a Z-score (n = 3 mice per group). Expression levels of GZMB were analyzed using real-time quantitative PCR. Reverse transcription was performed with the iScript cDNA synthesis kit (Biorad), using aliquots of total RNA extracted with RNeasy Plus Mini Kit (Qiagen). Gene-specific primers were GZMB-F […] and GZMB-R […]. Real-time PCR reactions were performed using the CFX Connect Real-Time PCR System (Biorad) and the amplifications were done using the iTaq Universal SYBR Green Supermix (Biorad). qPCR data were analyzed using the Bio-Rad CFX Maestro software. […]
a Undirected Directed Enrichment
Pathway # of Genes Enrichment Score Score
Gene Name Supplementary Figure 1: Gene
Mdm2 expression analysis of MMAE treated
Casp3 cells. B16 cells exposed to 5 nM MMAE for
Bcl2l1 72 hrs. RNA collected and analyzed using Cd68 murine NanoString PanCancer IO 360
Thbs1 Panel. a) Gene set analysis with calculated
Gls global significance scores and directed
Fstl3 significance scores. b) Heatmap depicting
Mfge8 2 differential gene expression of 36 genes
Brd3 1 control and MMAE treated cells. Source
Pias4 0 data are provided in Source Data file under
Fzd9 tab labeled Figure 1b.
Supplementary Data 1: Complete NanoString expression data of Figure 1b. Untreated control (n=2) and 5 nM MMAE treated (n=3) B16 cells were harvested at 72 hrs. RNA was collected and analyzed using NanoString PanCancer IO 360 Panel. Individual normalized RNA expression values shown for each gene. […]

[6] = 10 nmoles ACPP-MMAE x 2 doses, no IR
[7] = ACPP-MMAE alone, individual mice, status at the day, Figure 3e
[8] = 10 nmoles ACPP-MMAE x 2 doses + IR 5 Gy/day x 3
[9] = 5 nM MMAE 72 hrs, gene set analysis
[10] = 5 nM MMAE 72 hrs, samples MMAE_5, MMAE_1, MMAE_3

cyclo(RGD)fc-MC-HN-peg8-e9-oPLGC(Me)AG-r9-c-(MC-VC-PABC-MMAE)-CONH2 [ACPP-MMAE]
total tumor burden [1]: significantly decreased total tumor burden | survival and tumor control, + IR ([2]; 10 nmoles ACPP-MMAE x 2 doses + IR 3 Gy/day x 3): long-term survival and tumor control | anti-tumor efficacy, monotherapy [2, 6]: lacked significant anti-tumor efficacy | Mouse survival, status [2, 7]: 1 | survival and tumor control, + IR [3, 8]: modestly prolonged mouse survival and tumor control | anti-tumor efficacy, monotherapy [3, 6]: lacked significant anti-tumor efficacy | Mouse survival, status ([3]; ACPP-MMAE + IR): 1 | Mouse survival, status ([3]; ACPP-MMAE alone): 1 | survival and tumor control, + IR [4, 8]: long-term survival and tumor control | anti-tumor efficacy, monotherapy [4, 6]: lacked significant anti-tumor efficacy | Mouse survival, status [4, 7]: 1

CC[C@H](C)[C@@H]([C@@H](CC(=O)N1CCC[C@H]1[C@H](OC)[C@@H](C)C(=O)N[C@H](C)[C@@H](O)c1ccccc1)OC)N(C)C(=O)[C@@H](NC(=O)[C@@H](NC)C(C)C)C(C)C [MMAE, monomethyl auristatin E] (H-[NMeV]V[Dil][Dolaproine]-X1)
Directed Enrichment Score: Angiogenesis [5, 9]: 1.8412 | Directed Enrichment Score: Antigen Presentation [5, 9]: 0.8121 | Directed Enrichment Score: Apoptosis [5, 9]: 0.9856 | Directed Enrichment Score: Autophagy [5, 9]: -3.279 | Directed Enrichment Score: Cell Proliferation [5, 9]: -0.7774 | Directed Enrichment Score: Costimulatory Signaling [5, 9]: -1.9366 | Directed Enrichment Score: Cytokine and Chemokine Signaling [5, 9]: -1.4236 | Directed Enrichment Score: Cytotoxicity [5, 9]: 0.8779 | Directed Enrichment Score: DNA Damage Repair [5, 9]: -1.9501 | Directed Enrichment Score: Epigenetic Regulation [5, 9]: -1.7988 | Directed Enrichment Score: Hedgehog Signaling [5, 9]: -2.2414 | Directed Enrichment Score: Hypoxia [5, 9]: -2.4508 | Directed Enrichment Score: Immune Cell Adhesion and Migration [5, 9]: -1.0133 | Directed Enrichment Score: Interferon Signaling [5, 9]: 0.9986 | Directed Enrichment Score: JAK-STAT Signaling [5, 9]: -1.657 | Directed Enrichment Score: Lymphoid Compartment [5, 9]: 0.8253 | Directed Enrichment Score: MAPK [5, 9]: -1.437 | Directed Enrichment Score: Matrix Remodeling and Metastasis [5, 9]: 1.1775 | Directed Enrichment Score: Metabolic Stress [5, 9]: -2.3196 | Directed Enrichment Score: Myeloid Compartment [5, 9]: 0.1922 | Directed Enrichment Score: NF-kappaB Signaling [5, 9]: -0.7242 | Directed Enrichment Score: Notch Signaling [5, 9]: -1.0152 | Directed Enrichment Score: PI3K-Akt [5, 9]: -1.358 | Directed Enrichment Score: TGF-beta Signaling [5, 9]: -2.2971 | Directed Enrichment Score: Wnt Signaling [5, 9]: -2.3166 | Undirected Enrichment Score: Angiogenesis [5, 9]: 2.7066 | Undirected Enrichment Score: Antigen Presentation [5, 9]: 1.2276 | Undirected Enrichment Score: Apoptosis [5, 9]: 2.3071 | Undirected Enrichment Score: Autophagy [5, 9]: 3.5536 | Undirected Enrichment Score: Cell Proliferation [5, 9]: 2.1596 | Undirected Enrichment Score: Costimulatory Signaling [5, 9]: 2.2732 | Undirected Enrichment Score: Cytokine and Chemokine Signaling [5, 9]: 1.9551 | Undirected Enrichment Score: Cytotoxicity [5, 9]: 1.637 | Undirected Enrichment Score: DNA Damage Repair [5, 9]: 2.4043 | Undirected Enrichment Score: Epigenetic Regulation [5, 9]: 2.4405 | Undirected Enrichment Score: Hedgehog Signaling [5, 9]: 3.1229 | Undirected Enrichment Score: Hypoxia [5, 9]: 2.9454 | Undirected Enrichment Score: Immune Cell Adhesion and Migration [5, 9]: 1.8838 | Undirected Enrichment Score: Interferon Signaling [5, 9]: 1.5239 | Undirected Enrichment Score: JAK-STAT Signaling [5, 9]: 2.5395 | Undirected Enrichment Score: Lymphoid Compartment [5, 9]: 1.1946 | Undirected Enrichment Score: MAPK [5, 9]: 2.756 | Undirected Enrichment Score: Matrix Remodeling and Metastasis [5, 9]: 2.3587 | Undirected Enrichment Score: Metabolic Stress [5, 9]: 2.8728 | Undirected Enrichment Score: Myeloid Compartment [5, 9]: 1.2711 | Undirected Enrichment Score: NF-kappaB Signaling [5, 9]: 1.6264 | Undirected Enrichment Score: Notch Signaling [5, 9]: 2.5438 | Undirected Enrichment Score: PI3K-Akt [5, 9]: 2.7297 | Undirected Enrichment Score: TGF-beta Signaling [5, 9]: 3.339 | Undirected Enrichment Score: Wnt Signaling [5, 9]: 3.1574 | NanoString scores: Bcl2l1 [5, 10]: 0.4361 and 0.5098 and 0.454 | NanoString scores: Cd68 [5, 10]: 1.981 and 1.6572 and 1.978 | NanoString scores: Mdm2 [5, 10]: 0.6422 and 0.6786 and 0.4527 | pathways downregulated by MMAE (gene set analysis) ([5]; downregulated pathways / all pathways): 17/25
